According to US6930184B2, “Functional fluorescent dyes” (3M Innovative Properties Company, priority 2002, dated 2005):

Assays:
[1] = Solubility in acetone; type: physicochemical; conditions: acetone added until no undissolved dye remained
Description: Solubility of the dyes in acetone was determined by weighing a small amount of dye into a jar and adding small aliquots of acetone until no undissolved dye remained.

[2] = Solubility in acrylate monomer (fluorescence measurement); type: physicochemical
Description: Solubility of the dyes was determined in various acrylate monomers using standard fluorescence measurement techniques (SPEX Fluorolog-3 Spectrophotometer, SPEX Industries, Edison, N.J.).

[3] = acrylate monomer BMA (butyl methacrylate)
[4] = acrylate monomer LMA (lauryl methacrylate)

Solubility of dye in acetone [1] | Solubility of dyes in acrylate monomers [2, 3] | Solubility of dyes in acrylate monomers [2, 4] | SMILES
0.83 g acetone/mg of dye | 1217 μg dye/mL of acrylate monomer | 816 μg dye/mL of acrylate monomer | C=CC(=O)OCCn1c(=O)c2ccc3sc4ccccc4c4ccc(c1=O)c2c34 [AD-1]
11.6 g acetone/mg of dye | 559 μg dye/mL of acrylate monomer | 227 μg dye/mL of acrylate monomer | C=CC(=O)OCCn1c(=O)c2ccc3sc4ccccc4c4ccc(c1=O)c2c34 [AD-6]

Further lines, the compound ahead of its results:

SMILES | Solubility of dye in acetone [1] | Solubility of dyes in acrylate monomers [2, 3] | Solubility of dyes in acrylate monomers [2, 4]
C=CC(=O)OCCOc1cc2c3ccccc3c(=O)c3ccc4c5ccccc5sc1c4c32 [AD-5] | 0.65 g acetone/mg of dye | – | –
C=CC(=O)OCCn1c(=O)c2ccc3sc4ccccc4c4ccc(c1=O)c2c34 [AD-7] | 0.83 g acetone/mg of dye | 301 μg dye/mL of acrylate monomer | 114 μg dye/mL of acrylate monomer
C=CC(=O)OCCOc1cc2c3ccccc3c(=O)c3ccc4c5ccccc5sc1c4c32 [AD-4] | 11.0 g acetone/mg of dye | – | –
